This is an account of results in PubChem BioAssay (NCI).

Common to all, as to test: NCI-60 cell line screen, 48 h
Assay [1] concerns SN12C renal.
Assay [2] relates to 786-0 renal.
Assay [3] concerns LOX IMVI melanoma.
Assay [4] concerns SNB-19 CNS.
The test system of assay [5] is A549 NSCLC.
For assay [6], the system named is K-562 leukemia.
Assay [7] concerns RPMI-8226 leukemia.
In assay [8] the test system is SF-295 CNS.
For assay [9], the system named is CCRF-CEM leukemia.
In assay [10] the test system is RXF 393 renal.
Assay [11] has as its system IGROV1 ovarian.
Assay [12] concerns HCC-2998 colon.
The test system of assay [13] is NCI-H522 lung.
In assay [14] the test system is UACC-62 melanoma.
Assay [15] deals with SW-620 colon.
The test system of assay [16] is HCT-15 colon.
Assay [17] deals with SNB-75 CNS.
The subject of assay [18] is OVCAR-3 ovarian.
In assay [19] the test system is HOP-92 NSCLC.

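Tested at 5 concentrations; 48 h exposure; 96-well plates; endpoints linearly interpolated, else capped at highest concentration. The concentration for full growth arrest is given as TGI.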

On to `O=S(CC1(O)CCCCC1)c1ccccc1` (stereo not given), for which the TGI in [1], in assay [2], in assay [3], in [4], in assay [5] and in assay [6] was > 100 µM in each case. For the same compound, the TGI is 2.32 µM in [7]; > 100 µM in [8]; > 100 µM in assay [9]; > 100 µM in assay [10]; > 100 µM in [11]; > 100 µM in [12]. Also, the TGI in assay [13], in assay [14], in assay [15], in assay [16] and in [17] was > 100 µM throughout.
Consider `COc1cccc(/C=C2\CCCc3ccccc3C2=O)c1`, for which the TGI in [1] was 33 µM; in assay [2], 27.4 µM; in assay [3] it was 38.9 µM; in assay [4], 26.8 µM; in [5], > 100 µM; in assay [6], 48.2 µM. Besides, the TGI in assay [7] stood at 64.1 µM; in [8], 30.7 µM; in [9], 35.3 µM; in assay [11], 46.3 µM; in [13], 40.3 µM; in assay [14], 25.8 µM. Further, the TGI is 35.5 µM in assay [15]; 26 µM in [16]; 34 µM in [18]; > 100 µM in [17]; 43.2 µM in assay [19].
With `COc1cc(/C=C2\N=C(c3ccccc3)N(c3nc4cc(C)c(C)cc4s3)C2=O)ccc1O`, the TGI in assay [1] is 78.9 µM; in [2], > 100 µM; in [3] it was > 100 µM; in [4], > 100 µM; in [5] it was > 100 µM; in assay [6] it was > 100 µM. The TGI is > 100 µM in [7]; > 100 µM in assay [8]; 39.1 µM in [9]; 82.2 µM in assay [10]; > 100 µM in [11]; 69.9 µM in assay [12]. Further, the TGI in [14] is > 100 µM; in assay [15] it was > 100 µM; in assay [16], > 100 µM; in assay [18] it was 65.3 µM; in assay [17], > 100 µM; in assay [19] it was > 100 µM.
Regarding `Cc1cc(C)nc(NS(=O)(=O)c2ccc(NNc3c4ccccc4nc4c(C(=O)Nc5ccc(S(N)(=O)=O)cc5)cccc34)cc2)n1`, the TGI in assay [1], in [2], in [3], in assay [4], in assay [5] and in assay [6] was > 100 µM each time. Moreover, the TGI in assay [7] was > 100 µM; in assay [8] it was > 100 µM; in assay [9], 83.6 µM; in [10], > 100 µM; in assay [11], > 100 µM; in assay [12] it was 84.3 µM. For the same compound, the TGI in assay [13] is 85.8 µM; in [14], > 100 µM; in assay [15], > 100 µM; in assay [16], > 100 µM; in assay [18] it was > 100 µM; in assay [17], 33 µM. Also, the TGI in [19] is > 100 µM.
For `CC(=O)OC[C@]1(C)CCCC2(C)C1CCC1C=C(C)[C@H]3CCC12C3` (stereo not given in full), the TGI in assay [1], in assay [2], in assay [3], in assay [4], in [5] and in [6] was > 100 µM throughout. The TGI in [7], in [8], in assay [9], in assay [10], in [11] and in assay [12] was > 100 µM throughout. The TGI was 75 µM in [13]; > 100 µM in [14]; > 100 µM in assay [15]; > 100 µM in [16]; > 100 µM in [18]; 93.2 µM in assay [17].
Regarding `NC(N)=NS(=O)(=O)c1ccc(NNc2c3ccccc3nc3c(C(=O)Nc4ccc(S(=O)(=O)N=C(N)N)cc4)cccc23)cc1`, the TGI in [1] is > 100 µM; in assay [2], > 100 µM; in assay [3] it was > 100 µM; in assay [4] it was > 100 µM; in [5], > 100 µM; in assay [6], 63.6 µM. For the same compound, the TGI in assay [7] was > 100 µM; in assay [8] it was > 100 µM; in assay [9], 60.1 µM; in assay [10] it was > 100 µM; in assay [11], > 100 µM; in assay [12], > 100 µM. For the same compound, the TGI in [13] was 67.1 µM; in assay [14], > 100 µM; in assay [15], > 100 µM; in [16] it was > 100 µM; in assay [18], > 100 µM; in assay [17], > 100 µM. Also, the TGI in assay [19] was > 100 µM.
In the case of `CC[C@H](Nc1c(O)c2c(c(O)c1Cl)C(=O)C=CC2=O)C(=O)OC`, the TGI is 9.16 µM in assay [1]; > 10 µM in assay [2]; > 10 µM in [3]; > 10 µM in assay [4]; > 10 µM in [5]; > 10 µM in assay [6]. Also, the TGI in assay [7], in [8], in [9], in assay [11], in assay [13] and in [14] was > 10 µM in each case. Further, the TGI in assay [15], in assay [16], in assay [18], in assay [17] and in assay [19] was > 10 µM in each case.
On to `N#CC(C#N)=C/C=C(\Sc1c(Cl)c(Cl)nc(Cl)c1Cl)c1ccc(Cl)cc1`, for which the TGI is 42.4 µM in [1]; 27.5 µM in [2]; 20.5 µM in [3]; 43 µM in assay [4]; > 100 µM in assay [5]; > 100 µM in [6]. The TGI was > 100 µM in assay [7]; 44.9 µM in assay [8]; > 100 µM in [9]; 40 µM in [10]; 53.6 µM in assay [11]; 56.5 µM in assay [13]. The TGI in [14] is 30 µM; in assay [15], 25.9 µM; in assay [16], 30.1 µM; in assay [18] it was 27.3 µM; in [17] it was 44.9 µM; in assay [19], > 100 µM.
On to `CC(NO)/C(=N/O)c1ccco1` (stereo not given), for which the TGI in assay [1], in [2], in [4], in [5], in assay [6] and in [7] was > 10 µM throughout. Moreover, the TGI in assay [8], in [9], in assay [10], in assay [12], in assay [13] and in [15] was > 10 µM each time. In addition, the TGI in assay [16], in [18] and in [19] was > 10 µM each time.
`Oc1c(Cl)c(Cl)c(O)c(CCNc2ccc3ncccc3c2)c1Cl`: the TGI was 28.9 µM in assay [1]; 34.3 µM in [2]; 32.3 µM in assay [4]; 47.3 µM in [5]; > 100 µM in assay [6]; 24.1 µM in assay [8]. Besides, the TGI was determined as 37.7 µM in [10]; 21 µM in assay [11]; 28 µM in assay [12]; 4.29 µM in assay [13]; 23.8 µM in [14]; 95.6 µM in assay [15]. In addition, the TGI in assay [16] is 30 µM; in assay [18] it was 35 µM; in assay [17], 33.4 µM; in [19], > 100 µM.
Take `O=C1/C(=C/c2ccc(OC(=O)c3ccccc3)cc2)CCC/C1=C\c1ccc(OC(=O)c2ccccc2)cc1`: the TGI in assay [1], in assay [2], in assay [3], in assay [4], in assay [5] and in assay [7] was > 100 µM throughout. Further, the TGI in [8], in assay [9], in [11], in assay [12], in [13] and in assay [14] was > 100 µM throughout. Further, the TGI in assay [15], in assay [16], in assay [18], in assay [17] and in [19] was > 100 µM throughout.
As to `CCOP(=O)(OCC)/C(=C/NC(=S)c1ccncc1)C(=O)OC`, the TGI in assay [1], in assay [2], in [3], in assay [4], in assay [5] and in [6] was > 100 µM in each case. The TGI in assay [7] was > 100 µM; in assay [8], > 100 µM; in [9] it was 64.8 µM; in [10] it was > 100 µM; in assay [11], > 100 µM; in assay [12], > 100 µM. The TGI in assay [13], in [14], in assay [15], in [16], in assay [18] and in assay [19] was > 100 µM throughout.
Turning to `Nc1c2ccccc2nc2ccc3c(=O)cc(-c4ccccc4)oc3c12`, the TGI in assay [2] was found to be 0.348 µM; in assay [6] it was 0.326 µM; in [7], 0.697 µM; in [10], 2.91 µM; in assay [12], 1.9 µM; in assay [15] it was 0.34 µM. In addition, the TGI in assay [16] was found to be 4.3 µM; in assay [18], 2.85 µM; in assay [17], 3.58 µM; in assay [19], 2.59 µM.
Turning to `O=C(O)C1CCCCC1C(=O)Nn1cnnc1` (stereo not given), the TGI in assay [1], in [2], in assay [3], in [4], in [5] and in [6] was > 100 µM in each case. Moreover, the TGI in assay [7], in assay [8], in [9], in [10], in assay [11] and in assay [12] was > 100 µM in each case. Further, the TGI in [13], in assay [14], in assay [15], in [16], in [18] and in [17] was > 100 µM throughout. In addition, the TGI in assay [19] is > 100 µM.
With `Cn1c(=O)n2n(c1=O)C(S(=O)(=O)c1ccccc1)C2` (stereo not given), the TGI in [1], in assay [2], in [3], in [4], in assay [5] and in assay [6] was > 100 µM each time. Also, the TGI in [7], in assay [8], in assay [9], in [10], in [11] and in [12] was > 100 µM in each case. For the same compound, the TGI in [13], in [14], in assay [15], in assay [16], in assay [18] and in [17] was > 100 µM throughout. In [19], the TGI is > 100 µM.
Consider `CCN(CC)c1ccc2cc(C(N)=S)c(=N)oc2c1`, for which the TGI in [1], in assay [2], in assay [3], in assay [4], in assay [5] and in assay [6] was > 100 µM in each case. The TGI in assay [7], in assay [8], in assay [9], in assay [10], in [11] and in assay [12] was > 100 µM each time. In addition, the TGI in assay [13], in assay [14], in [15], in assay [16], in assay [17] and in assay [19] was > 100 µM in each case.
